Data from patent publication US20050215564A1, “Methods and compositions for treating hyperproliferative conditions” (priority 2002, published 2005).

How the values were obtained:
[1] = test system: ras-transformed fibroblasts (ras 3T3 cells); assay: MTS-based cell-viability assay, control cells (FIG. 3B); settings: for survival (viable surviving fraction): MTS assay at day 5, over the dose range examined; for effect on cell growth: singly or together
Experimental: Screening Assay. […] Cells were plated and attached overnight in growth media consisting of DMEM with 10% fetal bovine serum (FBS). […] Media with agents was replaced every 48 hours. At day 5 and 8, media was withdrawn and cells were fixed and stained in 0.5% crystal violet in 70% methanol. The crystal violet stained cells reveal a dense intact monolayer in media absent either agent. […] This observed synergistic effect is an important finding in the treatment of diseases characterized by hyperproliferation of cells. […] For cell-counting assays, 5×10^3 cells were plated in triplicate in 100 mm cell culture dishes and allowed to attach overnight as above in DMEM+10% FBS and treated with agents in DMEM+5% PPP. Media and agents were replaced every 48 hours. At day 5 cells were trypsinized and counted with hemacytometer.
For the MTS-based cell-viability assay, 5×10^3 cells were plated in 24 well dishes overnight in DMEM+10% FBS. […] Each condition was assayed in triplicate. Media and agents were replaced every 48 hours and viable surviving fraction estimated using the MTS assay at day 5 following treatment.

[2] = test system: chronic myeloid leukemia and gastrointestinal stromal tumours; settings: humans; cited from earlier work
[3] = test system: simian sarcoma virus-transformed NIH/3T3 (sis 3T3) fibroblast cells; assay: Screening assay, crystal violet staining of cells in 12-well dishes (FIG. 1); assay type: cell-based; settings: single agent in increasing amounts (STI-571 0-3 μM; ADW 0-1 μM), DMEM+5% PPP, crystal violet at day 5 and 8
Experimental: Screening Assay. […] Cells were plated and attached overnight in growth media consisting of DMEM with 10% fetal bovine serum (FBS). […] Media with agents was replaced every 48 hours. At day 5 and 8, media was withdrawn and cells were fixed and stained in 0.5% crystal violet in 70% methanol. […] For cell-counting assays, 5×10^3 cells were plated in triplicate in 100 mm cell culture dishes and allowed to attach overnight as above in DMEM+10% FBS and treated with agents in DMEM+5% PPP. Media and agents were replaced every 48 hours. At day 5 cells were trypsinized and counted with hemacytometer.

Compound	survival (viable surviving fraction) [1]	effect on cell growth [1]	efficacy in treating chronic myeloid leukemia and gastrointestinal stromal tumours [2]	density of cells in the monolayer [3]
Nc1ncnc2c1c(-c1cccc(OCc3ccccc3)c1)cn2[C@H]1C[C@H](CN2CCCC2)C1 [ADW, trans-5-(3-benzyloxy-phenyl)-7-(3-pyrrolidin-1-ylmethyl-cyclobutyl)-7H-pyrrolo[2,3-d]pyrimidin-4-ylamine]	decreased survival	little effect		
Cc1ccc(NC(=O)c2ccc(CN3CCN(C)CC3)cc2)cc1Nc1nccc(-c2cccnc2)n1 [STI-571]	no effect on survival	little effect	effective	visibly depleted
